Results from US11952584B2, “Functional peptides having antimicrobial activity against phytopathogenic microorganisms” (TOYOTA JIDOSHA KABUSHIKI KAISHA, priority 2019, dated 2024).
“And” between values parts separate entries of the source, which are not always exact repeats. Equal entries are not always repeated. Where two headings read alike, the source gives them in different places.

How the values were obtained:
[1] = system: Botrytis cinerea; type: cell-based; settings: 25° C., 1 day or 2 days
[2] = system: Colletotrichum destructivum; type: cell-based; settings: 25° C., 1 day or 2 days
[3] = system: Colletotrichum orbiculare; type: cell-based; settings: 25° C., 1 day or 2 days
[4] = system: Fusarium oxysporum; type: cell-based
[5] = system: Pyricularia oryzae; type: cell-based; settings: 25° C., 1 day or 2 days
[6] = system: Colletotrichum destructivum; test: Colletotrichum destructivum leaf inoculation test (Chinese cabbage leaf); type: in vivo; settings: 25° C., 4 days, lesions by visual inspection
Description: In the present example, a suspension comprising Colletotrichum destructivum and a peptide to be tested was dropped on a plant leaf, and lesions were then observed by visual inspection to evaluate the antimicrobial activity of the tested peptide. First, the pores of Colletotrichum destructivum were suspended in water to result in a spore concentration of 5×10^5 spores/ml, so as to prepare a water suspension of spores. Subsequently, peptides to be tested (TsORF18 (full length), TsORF18-40 a.a., and TsORF18-2) were each added to the water suspension of spores, so that the final concentration of the peptides to be tested became 0 μM, 1 μM, 10 μM or 100 μM. Thereafter, 10 μl each of the water suspension of spores containing the peptide to be tested was dropped on the front side and the back side of the leaf of Chinese cabbage (variety name: “Kigokoro 85”). In this condition, incubation was carried out at 25° C. for 4 days. Thereafter, the front and back sides of the leaf were observed by visual inspection.

[7] = system: plant pathogenic filamentous fungi; type: cell-based; settings: summary of Table 3

Row | Substance | Plate antimicrobial activity test Botrytis cinerea (level) ([1]; peptide 1 μM) | Plate antimicrobial activity test Botrytis cinerea (level) ([1]; peptide 10 μM) | Plate antimicrobial activity test Botrytis cinerea (level) ([1]; peptide 100 μM) | Plate antimicrobial activity test Colletotrichum destructivum (level) ([2]; peptide 1 μM) | Plate antimicrobial activity test Colletotrichum destructivum (level) ([2]; peptide 10 μM) | Plate antimicrobial activity test Colletotrichum destructivum (level) ([2]; peptide 100 μM) | Plate antimicrobial activity test Collectotrichum orbiculare (level) ([3]; peptide 1 μM) | Plate antimicrobial activity test Collectotrichum orbiculare (level) ([3]; peptide 10 μM) | Plate antimicrobial activity test Collectotrichum orbiculare (level) ([3]; peptide 100 μM) | Plate antimicrobial activity test Fusarium oxysporum (level) [4] | Plate antimicrobial activity test Pyricularia oryzae (level) ([5]; peptide 1 μM) | Plate antimicrobial activity test Pyricularia oryzae (level) ([5]; peptide 10 μM) | Plate antimicrobial activity test Pyricularia oryzae (level) ([5]; peptide 100 μM) | Leaf inoculation test Chinese cabbage/Colletotrichum destructivum ([6]; peptide 10 μM) | Leaf inoculation test Chinese cabbage/Colletotrichum destructivum ([6]; peptide 100 μM) | germination inhibitory activity against plant pathogenic filamentous fungi (in words) [7]
1 | RKFWR (listed as Solanum lycopersicum) [TsORF18-2-5aa-12] | 0 | 0 | 3 | 0 | 0 | 3 | 0 | 0 | 2 | 3 and 0 | 0 | 0 | 0 | ∘ | ∘ | extremely excellent germination inhibitory activity
2 | WRIWK (listed as Solanum lycopersicum) [TsORF18-2-5aa-15] | 0 | 0 | 3 | 0 | 0 | 3 | 0 | 0 | 2 | 2 and 0 | 0 | 0 | 0 | – | – | extremely excellent germination inhibitory activity
3 | WRIWKGKT (listed as Solanum lycopersicum) [TsORF18-2-8aa-15] | 0 | 0 | 3 | 0 | 0 | 3 | 0 | 0 | 3 | 3 and 0 | 0 | 0 | 0 | – | – | extremely excellent germination inhibitory activity
4 | ERTRKFWR (listed as Solanum lycopersicum) [TsORF18-2-8aa-9] | 0 | 0 | 3 | 0 | 0 | 0 | 0 | 0 | 1 | 3 and 0 | 0 | 0 | 1 | – | – | extremely excellent germination inhibitory activity
5 | KGKTS (listed as Solanum lycopersicum) [TsORF18-2-5aa-19] | 0 | 0 | 0 | 0 | 0 | 0 | 0 | 0 | 0 | 0 | 0 | 0 | 0 | – | – | –
6 | AFSERTRK (listed as Solanum lycopersicum) [TsORF18-2-8aa-6] | 0 | 0 | 0 | 0 | 0 | 0 | 0 | 0 | 0 | 0 | 0 | 0 | 0 | – | – | –
7 | ERTRK (listed as Solanum lycopersicum) [TsORF18-2-5aa-9] | 0 | 0 | 0 | 0 | 0 | 0 | 0 | 0 | 0 | 0 | 0 | 0 | 0 | – | – | –
8 | FPAFSERT (listed as Solanum lycopersicum) [TsORF18-2-8aa-4] | 0 | 0 | 0 | 0 | 0 | 0 | 0 | 0 | 0 | 0 | 0 | 0 | 0 | – | – | –
9 | RIWKG (listed as Solanum lycopersicum) [TsORF18-2-5aa-16] | 0 | 0 | 0 | 0 | 0 | 0 | 0 | 0 | 0 | 0 | 0 | 0 | 0 | – | – | –
